Experimental data taken from patent US20250248979A1, “NOVEL GPX4 INHIBITORS AND USES THEREOF” (THE TRUSTEES OF COLUMBIA UNIVERSITY IN THE CITY OF NEW YORK, priority 2022, published 2025).
Values after ≈ are worked out from the molar mass of the structure shown. Read-outs that look alike come from different tables or passages of the source.

Experiments:
[1] = system: Salmonella typhimurium TA98, TA100, TA1535, TA1537
HT-1080 cells = experiment: Cellular dose response assay, HT-1080 with and without Fer-1; assay type: cell-based, human; conditions: for ferroptosis induction / potency in HT-1080 cells, result in words: RSL3 as control
Procedure, shortened: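 Dose-response over 12 twofold concentrations, 48 h exposure, 0.4% DMSO, in cells seeded at 1500 per well overnight. HT-1080 also run plus Fer-1. Endpoint: CellTiter-Glo luminescence.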

in vitro [2] = assay type: in vitro ADME, mouse; conditions: mouse, microsomes
Description: (§1) […]. The incubation timepoints measured were 0, 5, 10, 15, 30, and 45 minutes. All samples were prepared in duplicate and analyzed by LC-MS/MS.

[3] = not given; remark: listed apart in the source
in vitro [4] = assay type: in vitro ADME, human; conditions: human, microsomes
Description: as §1

GPX4 = target: T1, GPX4 (Homo sapiens, UniProt P36969); experiment: GPX4 activity assay in cell lysates (NADPH-coupled); assay type: biochemical; parameters: endogenous in cells; host or cells: A-673 cell lysate
T1 sequence (P36969 1-170 isoform P36969-2): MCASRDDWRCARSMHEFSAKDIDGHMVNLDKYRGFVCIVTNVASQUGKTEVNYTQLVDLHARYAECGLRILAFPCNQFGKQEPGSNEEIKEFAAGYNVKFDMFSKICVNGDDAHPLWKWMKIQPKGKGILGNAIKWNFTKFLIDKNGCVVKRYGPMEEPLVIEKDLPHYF
Procedure, shortened: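 Native GPX4 in lysates of A-673 cells grown with 20 nM sodium selenite; lysate preincubated with compound 45 min at 37 °C in pH 8.0 buffer with 3 mM GSH, 0.5 mM NADPH and glutathione reductase. Reaction started with phosphatidylcholine hydroperoxide; NADPH consumption followed at 340 nm over 25 min; triplicates.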

[5] = Kinetic aqueous solubility
[6] = HT1080 + Fer-1, read-out: IC50 (uM) HT1080 + Fer-1
[7] = HT1080, without Fer-1, read-out: IC50 (uM) HT1080
[8] = ferroptosis selectivity, HT1080 + Fer-1 vs HT1080

## CN(N=O)C(=O)N[C@H]1C(O)O[C@H](CO)[C@@H](O)[C@@H]1O (mixture of isomers) [Streptozotocin]
[1]; 2.5 μM
  Positive Significance (− to +++) TA98 − S9: + (Weak positive, if p < 0.05)
  Positive Significance (− to +++) TA100 + S9: +++ (Very strong positive, if p < 0.001)
  Positive Significance (− to +++) TA1535 + S9: +++ (Very strong positive, if p < 0.001)
[1]; TA100, − S9, 2.5 μM
  Positive Significance (− to +++) TA100 − S9: +++ (Very strong positive, if p < 0.001)
[1]; TA1535, − S9, 2.5 μM
  Positive Significance (− to +++) TA1535 − S9: +++ (Very strong positive, if p < 0.001)

## CC(OC(=O)CCl)C(C)(C)NC(=O)c1nn(C)c2cc(-c3ccc(N4CCOCC4)c(Cl)c3)ccc12 (racemic) [QW-737]
HT-1080 cells; [6]
  IC50: 1.7 µM
HT-1080 cells; [7]
  IC50: 1 µM
HT-1080 cells; [8]
  Selectivity: 1.7
In vitro [2]
  Microsome Stability t1/2 (min) mouse: 7.4 min
other
  Plasma Stability t1/2 (min) human: 275 min
[3]
  Plasma Stability t1/2 (min) mouse: 6.6 min
In vitro [4]
  Microsome Stability t1/2 (min) human: 8.6 min
GPX4
  GPX4% inhibition at 2.5 μM: 86.4 ± 7.3%

## COc1c(Cl)cc(-c2ccc3c(C(=O)NC(C)(C)C(C)OC(=O)CCl)nn(C)c3c2)cc1Cl (racemic) [QW-745]
HT-1080 cells; [6]
  IC50: 1.8 µM
HT-1080 cells; [7]
  IC50: 1.6 µM
HT-1080 cells; [8]
  Selectivity: 1.1
In vitro [2]
  Microsome Stability t1/2 (min) mouse: 13.0 min
other
  Plasma Stability t1/2 (min) human: 245 min
[3]
  Plasma Stability t1/2 (min) mouse: 25.4 min
In vitro [4]
  Microsome Stability t1/2 (min) human: 19.5 min
GPX4
  GPX4% inhibition at 2.5 μM: 55.4 ± 8.1%

## Nc1ccc2cc3ccccc3cc2c1 [Compound 2-Aminoanthracene, 2-Aminoanthracene]
[1]; 1 μM
  Positive Significance (− to +++) TA98 + S9: +++ (Very strong positive, if p < 0.001)
  Positive Significance (− to +++) TA100 + S9: +++ (Very strong positive, if p < 0.001)
  Positive Significance (− to +++) TA1535 + S9: ++ (Strong positive, if p < 0.01)
  Positive Significance (− to +++) TA1537 + S9: +++ (Very strong positive, if p < 0.001)

## O=[N+]([O-])c1ccc2c(c1)Cc1ccccc1-2 [Compound 2-Nitrofluorene, 2-Nitrofluorene]
[1]; 30 μM
  Positive Significance (− to +++) TA98 + S9: +++ (Very strong positive, if p < 0.001)
  Positive Significance (− to +++) TA98 − S9: +++ (Very strong positive, if p < 0.001)

## Nc1c2ccccc2nc2ccccc12 [Compound 9-Aminoacridine, 9-Aminoacridine]
[1]; 10 μM
  Positive Significance (− to +++) TA1537 + S9: ++ (Strong positive, if p < 0.01)
[1]; TA1537, − S9, 10 μM
  Positive Significance (− to +++) TA1537 − S9: +++ (Very strong positive, if p < 0.001)

## Cn1nc(C(=O)NC(C)(C)COC(=O)CCl)c2ccc(-c3csc4ccccc34)cc21 [QW-505]
In vitro [2]
  Microsome Stability t1/2 (min) mouse: 1.8 min
other
  Plasma Stability t1/2 (min) human: 10.2 min
[3]
  Plasma Stability t1/2 (min) mouse: 6.3 min
In vitro [4]
  Microsome Stability t1/2 (min) human: 1.7 min
[5]; 1% DMSO, Phosphate Buffered Saline pH 7.4, 1 hour, ambient, UV/Vis absorbance
  Solubility: <1.3 µM
[5]; aqueous solubility, Table 9
  Solubility: <1.3 µM
GPX4
  GPX4% inhibition at 5 μM: 76.1 ± 4.0%

## CC(C)Oc1ccc(-c2ccc3c(C(=O)NC(C)(C)COC(=O)CCl)nn(C)c3c2)cc1Cl [QW-550]
In vitro [2]
  Microsome Stability t1/2 (min) mouse: 25 min
other
  Plasma Stability t1/2 (min) human: 73.2 min
[3]
  Plasma Stability t1/2 (min) mouse: 12.5 min
In vitro [4]
  Microsome Stability t1/2 (min) human: 49 min
[5]; aqueous solubility, Table 9
  Solubility: 7.8 µM (≈ 3.84 µg/mL)
GPX4
  GPX4% inhibition at 5 μM: 91.5 ± 2.2%

## Cn1nc(C(=O)NC(C)(C)COC(=O)CCl)c2ccc(-c3ccc(Oc4ccccc4)c(Cl)c3)cc21 [QW-561]
In vitro [2]
  Microsome Stability t1/2 (min) mouse: 24 min
other
  Plasma Stability t1/2 (min) human: 116 min
[3]
  Plasma Stability t1/2 (min) mouse: 23.9 min
In vitro [4]
  Microsome Stability t1/2 (min) human: 12 min
[5]; aqueous solubility, Table 9
  Solubility: 15.6 µM (≈ 8.21 µg/mL)
GPX4
  GPX4% inhibition at 5 μM: 87.6 ± 2.8%

## Cn1nc(C(=O)NC(C)(C)COC(=O)CCl)c2ccc(-c3ccc(Cl)c(Cl)c3)cc21 [QW-570]
In vitro [2]
  Microsome Stability t1/2 (min) mouse: 15 min
other
  Plasma Stability t1/2 (min) human: 56.7 min
[3]
  Plasma Stability t1/2 (min) mouse: 16.9 min
In vitro [4]
  Microsome Stability t1/2 (min) human: 22 min
[5]; aqueous solubility, Table 9
  Solubility: 15.6 µM (≈ 7.31 µg/mL)
GPX4
  GPX4% inhibition at 5 μM: 80.7 ± 14.8%

## Cn1nc(C(=O)NC(C)(C)COC(=O)CCl)c2ccc(-c3ccc4c(c3)OCO4)cc21 [QW-594]
HT-1080 cells
  Selectivity: 3.3
HT-1080 cells; [6]
  IC50: 8.8 µM
HT-1080 cells; [7]
  IC50: 2.7 µM
In vitro [2]
  Microsome Stability t1/2 (min) mouse: 137 min
  unbound clearance rate: 0.085 µL/min/mg
other
  Plasma Stability t1/2 (min) human: 6.6 min
[3]
  Plasma Stability t1/2 (min) mouse: 17.0 min
  half-life in mouse plasma: 17 min
In vitro [4]
  Microsome Stability t1/2 (min) human: 250 min
[5]; aqueous solubility, Table 9
  Solubility: 1.0 µM (≈ 0.444 µg/mL)
GPX4
  GPX4 inhibitory activity, result in words: comparable to that of QW-446
  GPX4% inhibition at 2.5 μM: 71.5 ± 3.0%
GPX4; concentration not given
  GPX4 inhibition rate: 75%

## COc1ccc(-c2ccc3c(C(=O)NC(C)(C)CNC(=O)CCl)nn(C)c3c2)cc1Cl [QW-628]
In vitro [2]
  Microsome Stability t1/2 (min) mouse: 19 min
other
  Plasma Stability t1/2 (min) human: 243 min
[3]
  Plasma Stability t1/2 (min) mouse: 311 min
In vitro [4]
  Microsome Stability t1/2 (min) human: 15 min
GPX4
  GPX4% inhibition at 2.5 μM: 33.6 ± 6.5%

## Cn1nc(C(=O)NC(C)(C)COC(=O)CCl)c2ccc(-c3ccc(OC(F)(F)F)c(Cl)c3)cc21 [QW-672]
HT-1080 cells; [6]
  IC50: 18.2 µM
HT-1080 cells; [7]
  IC50: 2.4 µM
HT-1080 cells; [8]
  Selectivity: 7.6
In vitro [2]
  Microsome Stability t1/2 (min) mouse: 19 min
other
  Plasma Stability t1/2 (min) human: 47.9 min
[3]
  Plasma Stability t1/2 (min) mouse: 4.7 min
In vitro [4]
  Microsome Stability t1/2 (min) human: 17 min
GPX4
  GPX4% inhibition at 2.5 μM: 68.0 ± 45.2%

## Cn1nc(-n2cc(C(C)(C)COC(=O)CCl)nn2)c2ccc(-c3ccc(N4CCOCC4)c(Cl)c3)cc21 [QW-680]
HT-1080 cells; [6]
  IC50: 12.1 µM
HT-1080 cells; [7]
  IC50: 3 µM
HT-1080 cells; [8]
  Selectivity: 4.0
In vitro [2]
  Microsome Stability t1/2 (min) mouse: 26 min
other
  Plasma Stability t1/2 (min) human: 67.4 min
[3]
  Plasma Stability t1/2 (min) mouse: 3.2 min
In vitro [4]
  Microsome Stability t1/2 (min) human: 28 min
GPX4
  GPX4% inhibition at 2.5 μM: 57.3 ± 2.8%

## COc1ccc(-c2ccc3c(C(=O)NC(C)(C)C(C)(C)OC(=O)CCl)nn(C)c3c2)cc1Cl [QW-730]
HT-1080 cells; [6]
  IC50: 5.7 µM
HT-1080 cells; [7]
  IC50: 0.59 µM
HT-1080 cells
  ferroptosis induction / potency in HT-1080 cells, result in words: sub-micromolar GI50 value
HT-1080 cells; [8]
  Selectivity: 9.7
In vitro [2]
  Microsome Stability t1/2 (min) mouse: 10.7 min
other
  Plasma Stability t1/2 (min) human: 318 min
[3]
  Plasma Stability t1/2 (min) mouse: 385 min
In vitro [4]
  Microsome Stability t1/2 (min) human: 6.6 min
GPX4
  GPX4% inhibition at 2.5 μM: 98.4 ± 17.6%

## COc1c(Cl)cc(-c2ccc3c(C(=O)NC(C)(C)C(C)(C)OC(=O)CCl)nn(C)c3c2)cc1Cl [QW-750]
HT-1080 cells; [6]
  IC50: 5.4 µM
HT-1080 cells; [7]
  IC50: 1.6 µM
HT-1080 cells
  ferroptosis induction / potency in HT-1080 cells, result in words: moderate potency
HT-1080 cells; [8]
  Selectivity: 3.4
In vitro [2]
  Microsome Stability t1/2 (min) mouse: 13.5 min
other
  Plasma Stability t1/2 (min) human: 290 min
[3]
  Plasma Stability t1/2 (min) mouse: >1000 min
In vitro [4]
  Microsome Stability t1/2 (min) human: 10.2 min
GPX4
  GPX4% inhibition at 2.5 μM: 20.4 ± 3.6%
